Test systems include MALME-3M melanoma; NCI-H23 lung; OVCAR-4 ovarian; SK-MEL-28 melanoma.
Holding throughout (experiment): inhibition of tumour cell growth, NCI panel, 48 h

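How tested: cells in 96-well plates exposed to compound for 48 hours at five concentrations. At the TGI there is no net growth.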 A value given as a limit tells only on which side of the number the result lay.

The values that follow come from PubChem BioAssay (NCI).

As for `O=C1CC(n2ccnc2)c2c(Cl)sc(Cl)c21` (centres undefined), the TGI was 36.1 µM with MALME-3M melanoma, 30.9 µM with NCI-H23 lung, 42.3 µM in the experiment with OVCAR-4 ovarian and above 54.7 µM in the experiment on SK-MEL-28 melanoma.

`CC1(C)CC(=O)c2c(-c3ccc(Cl)cc3)c(C#N)c(=S)n(C3OC(CO)C(O)C(O)C3O)c2C1` (centres undefined): the TGI in the experiment on MALME-3M melanoma, in the experiment on NCI-H23 lung, in the experiment on OVCAR-4 ovarian and in the experiment with SK-MEL-28 melanoma was above 100 µM each time.

`C=CC(C)(C)NC(C(=O)N1CCC[C@H]1c1nc(-c2nc(C(=O)OCC=C(C)C)c(C)o2)c(C)o1)C(C)C` (some centres undefined): the TGI in the experiment with MALME-3M melanoma, with NCI-H23 lung, with OVCAR-4 ovarian and with SK-MEL-28 melanoma was above 100 µM throughout.

As to `Nc1ncnc2c1ccn2CC#CCO`, the TGI in the experiment with MALME-3M melanoma, with NCI-H23 lung, in the experiment on OVCAR-4 ovarian and in the experiment with SK-MEL-28 melanoma was above 100 µM each time.

For the molecule `O=[N+]([O-])C(C(Cl)=C(Cl)Cl)=C(N1CCCCC1)N1CCCCC1`, the TGI in the experiment on MALME-3M melanoma, with NCI-H23 lung, in the experiment with OVCAR-4 ovarian and in the experiment with SK-MEL-28 melanoma was above 100 µM throughout.

Take `O=C1CSC(c2ccccc2)N1c1ccc(-c2ccc(-n3c(-c4ccccc4)nc4ccccc4c3=O)cc2)cc1` (centres undefined): the TGI with MALME-3M melanoma, with NCI-H23 lung, in the experiment with OVCAR-4 ovarian and with SK-MEL-28 melanoma was above 100 µM each time.

In the case of `COc1nc(=O)[nH]c2c1C(c1ccc([N+](=O)[O-])cc1)c1c(OC)nc(=O)[nH]c1O2`, the TGI in the experiment with NCI-H23 lung, in the experiment with OVCAR-4 ovarian and with SK-MEL-28 melanoma was above 100 µM throughout.

Regarding `C1CSCCSCCSCCSCCS1`, the TGI with NCI-H23 lung, with OVCAR-4 ovarian and with SK-MEL-28 melanoma was above 100 µM each time.

As for `CN1C(=O)C(=Cc2ccc(Br)cc2)C(=O)N(C)C1=O`, the TGI with NCI-H23 lung, in the experiment on OVCAR-4 ovarian and with SK-MEL-28 melanoma was above 100 µM throughout.

On to `N#CCCC1(CCC#N)S(=O)(=O)OCCOS1(=O)=O`, for which the TGI in the experiment on MALME-3M melanoma, in the experiment on NCI-H23 lung, in the experiment on OVCAR-4 ovarian and in the experiment on SK-MEL-28 melanoma was above 100 µM in each case.

Regarding `CC/C(Cl)=N\OC(=O)Nc1ccc(F)c(Cl)c1`, the TGI in the experiment on MALME-3M melanoma worked out at 9.29 µM; with NCI-H23 lung it was 45.7 µM; in the experiment with OVCAR-4 ovarian, 31.1 µM; with SK-MEL-28 melanoma, 30.1 µM.

As for `CN(C)c1n2c3ccc([N+](=O)[O-])cc3n3c(N(C)C)[n+]4ccccc4c3c2c2cccc[n+]12`, the TGI with MALME-3M melanoma, in the experiment with NCI-H23 lung, in the experiment with OVCAR-4 ovarian and in the experiment on SK-MEL-28 melanoma was above 100 µM throughout.

For the molecule `CNC(=O)O/N=C1\N(C)CN(c2ccccc2)C12CCN(CCCC(=O)c1ccc(F)cc1)CC2`, the TGI with MALME-3M melanoma is 90.8 µM; in the experiment on NCI-H23 lung, above 100 µM; in the experiment on OVCAR-4 ovarian, above 100 µM; in the experiment on SK-MEL-28 melanoma it was above 100 µM.

Take `Cc1cn(C2CC(O)C(Cn3nncc3Cn3cnc4c(N)ncnc43)O2)c(=O)[nH]c1=O` (centres undefined): the TGI with MALME-3M melanoma, in the experiment on NCI-H23 lung, in the experiment with OVCAR-4 ovarian and in the experiment with SK-MEL-28 melanoma was above 100 µM throughout.

For `C=C1N(C)c2ccc(S(=O)(=O)c3ccc4c(c3)C(C)(C)C(=C)N4C)cc2C1(C)C`, the TGI is 79 µM with MALME-3M melanoma, above 100 µM with NCI-H23 lung, above 100 µM in the experiment on OVCAR-4 ovarian and above 100 µM in the experiment on SK-MEL-28 melanoma.

Turning to `Cc1nc(C)c(N2CCN(Cc3ccccc3)CC2)c(=O)[nH]1`, the TGI in the experiment with MALME-3M melanoma, with NCI-H23 lung, in the experiment with OVCAR-4 ovarian and in the experiment with SK-MEL-28 melanoma was above 100 µM throughout.

Turning to `Cc1cn(CC(=S)NCCc2c[nH]c3ccccc23)c(=O)[nH]c1=O`, the TGI with MALME-3M melanoma, with NCI-H23 lung, with OVCAR-4 ovarian and with SK-MEL-28 melanoma was above 100 µM each time.

Take `COc1cc(-c2nc(N)c(C#N)c3c2CCS(=O)(=O)c2ccc(C)cc2-3)cc(OC)c1OC`: the TGI in the experiment on MALME-3M melanoma, with NCI-H23 lung, with OVCAR-4 ovarian and in the experiment on SK-MEL-28 melanoma was above 100 µM each time.

Turning to `CC(C)N(C(C)C)S(=O)(=O)CC12CCC(C/C1=N\O)C2` (centres undefined), the TGI with MALME-3M melanoma, in the experiment on NCI-H23 lung, in the experiment on OVCAR-4 ovarian and in the experiment with SK-MEL-28 melanoma was above 100 µM throughout.

As to `CCC1(c2ccc(OC)c(OC)c2)CCN(S(=O)(=O)c2ccc(C)cc2)C1` (centres undefined), the figures for the TGI with NCI-H23 lung, in the experiment on OVCAR-4 ovarian and with SK-MEL-28 melanoma were above 100 µM, above 100 µM and above 10 µM, respectively.

Regarding `COC1(OC)CCN(Cc2ccccc2)C1=O`, the TGI is above 100 µM in the experiment with MALME-3M melanoma, 43.8 µM in the experiment on NCI-H23 lung, 30.6 µM with OVCAR-4 ovarian and 23.3 µM with SK-MEL-28 melanoma.

With `Nc1ccc(Oc2ccc(C34CC5C6CC7(c8ccc(Oc9ccc(N)cc9)cc8)CC5C(C3)C(C7)C6C4)cc2)cc1`, the TGI with MALME-3M melanoma, with NCI-H23 lung, with OVCAR-4 ovarian and in the experiment with SK-MEL-28 melanoma was above 100 µM each time.

In the case of `COc1ccc2nc3ccc(OC)cc3c(S(=O)Cc3ccccc3)c2c1` (centres undefined), the TGI is 7.87 µM in the experiment on MALME-3M melanoma, 37.5 µM in the experiment on NCI-H23 lung, 30.2 µM in the experiment on OVCAR-4 ovarian and 27.2 µM in the experiment with SK-MEL-28 melanoma.

Turning to `Nc1c(F)c(F)c2c(c1F)N(CCCCCl)c1ccccc1S2`, the TGI in the experiment with MALME-3M melanoma, in the experiment with NCI-H23 lung, with OVCAR-4 ovarian and in the experiment with SK-MEL-28 melanoma was above 100 µM in each case.

As to `CC(C)(C)OC(=O)N(O)CCCn1cnc2c(NC3CC3)ncnc21`, the TGI with MALME-3M melanoma, in the experiment on NCI-H23 lung, with OVCAR-4 ovarian and in the experiment with SK-MEL-28 melanoma was above 100 µM in each case.

For `NC(=O)C1=C(O)[C@@]2(O)C(=O)C3=C(O)c4c(O)cccc4CC3C[C@H]2CC1=O` (some centres undefined), the TGI in the experiment with MALME-3M melanoma was 5.23 µM; in the experiment with NCI-H23 lung, 8.89 µM; in the experiment with OVCAR-4 ovarian, above 85.1 µM; in the experiment with SK-MEL-28 melanoma, 22.8 µM.

`COc1ccc2nc3c4c(nccc4c2c1)-c1ncccc1C3=O`: the TGI in the experiment with MALME-3M melanoma stood at 0.291 µM; with NCI-H23 lung, 0.265 µM; in the experiment on OVCAR-4 ovarian, 2.01 µM; with SK-MEL-28 melanoma it was 0.655 µM.
